These results are taken from US10870646B2, “Oxazolidinones and pharmaceutical compositions thereof for treating bacterial infections, including infection of Mycobacterium tuberculosis” (University of St. Thomas, priority 2017, dated 2020).

The subject of one assay is Staphylococcus aureus. As to the kind of experiment: MIC90 broth microdilution. Type of assay: cell-based. The conditions noted are these: for MIC90: Staphylococcus aureus. On the technique in general: Broth dilution looks for growth in wells or tubes with falling amounts of substance.
Another assay relates to Enterococcus faecalis. Briefly: MIC90 broth microdilution. The assay is classed as cell-based. Conditions: for MIC90: Enterococcus faecalis.
Assay [1] concerns Mycobacterium tuberculosis. The conditions noted are these: cited from earlier work; for MIC90: Mycobacterium tuberculosis, strain not stated, Kaushik et al. 2015 cited after the table.
A further assay relates to Mycobacterium abscessus. As to the kind of experiment: MIC90 broth microdilution. The assay is classed as cell-based. The conditions noted are these: for MIC90: Mycobacteroides abscessus.
A further assay concerns Pseudomonas aeruginosa. Briefly: MIC90 broth microdilution. Type of assay: cell-based. Conditions: for MIC90: Pseudomonas aeruginosa.
Assay [2] has as its system Acinetobacter baumannii 6M-1b. Briefly: MIC90 broth microdilution. The assay is classed as cell-based.
The test system of assay [3] is Acinetobacter baumannii ATCC 19606. As to the kind of experiment: MIC90 broth microdilution. Type of assay: cell-based. The conditions noted are these: ATCC19606.
Assay [4] deals with S. aureus. The assay is classed as cell-based, Staphylococcus aureus.
The test system of assay [5] is E. faecalis. As to the kind of experiment: Checkerboard titration assay (drug-drug interaction). Type of assay: cell-based, Enterococcus faecalis. Conditions: combined with biapenem, faropenem and tebipenem.
The test system of assay [6] is Acinetobacter baumannii ACBA. Briefly: MIC90 broth microdilution. The assay is classed as cell-based.
Assay [7] relates to E. faecalis. As to the kind of experiment: Minimum bactericidal concentration (MBC99.9). Type of assay: cell-based, Enterococcus faecalis. The conditions noted are these: up to 8 times MIC90.
A further assay has as its system Klebsiella pneumoniae. As to the kind of experiment: MIC90 broth microdilution. Type of assay: cell-based. Conditions: for MIC90: Klebsiella pneumoniae.
In assay [8] the test system is Mycobacterium tuberculosis H37Rv. As to the kind of experiment: MIC90 broth macrodilution. The assay is classed as cell-based.
For a further assay, the system named is Mycobacterium avium. Briefly: MIC90 broth microdilution. The conditions noted are these: for MIC90: Mycobacterium avium. The assay is classed as cell-based.
In assay [9] the test system is S. aureus. Briefly: Minimum bactericidal concentration (MBC99.9). The assay is classed as cell-based, Staphylococcus aureus. Conditions: up to 8 times MIC90.
Assay [10] relates to S. aureus. As to the kind of experiment: Checkerboard titration assay (drug-drug interaction). Type of assay: cell-based, Staphylococcus aureus. The conditions noted are these: combined with biapenem, faropenem and tebipenem.
In the next assay the test system is Mtb H37Rv. Briefly: Minimum bactericidal concentration (MBC99.9). Type of assay: cell-based, Mycobacterium tuberculosis.
A further assay has as its system Mtb. Briefly: Checkerboard titration assay (drug-drug interaction). The assay is classed as cell-based, Mycobacterium tuberculosis. The conditions noted are these: combined with isoniazid or rifampicin.
Assay [11] relates to E. faecalis. The assay is classed as cell-based, Enterococcus faecalis.
The test system of another assay is Enterobacter cloacae. As to the kind of experiment: MIC90 broth microdilution. Type of assay: cell-based. The conditions noted are these: for MIC90: Enterobacter cloacae.
Assay [12] has as its system S. aureus. The conditions noted are these: Zurenko et al. 1996; cited from earlier work.
The mark [13] stands for this setting: Acinetobacter baumannii 6M-1b, environmental isolate.
Setting [14] is: Acinetobacter baumannii ATCC 19606, read-out: MIC90.
Setting [15] is: Acinetobacter baumannii ACBA, patient isolate.
Where [16] appears, read: Acinetobacter baumannii ACBA, patient isolate, read-out: MIC90.
The mark [17] stands for this setting: Mycobacterium tuberculosis H37Rv, read-out: MIC90.
[18] abbreviates: Mycobacterium abscessus, read-out: MIC90.

Converted amounts (≈) assume the structure as drawn. Read-outs that look alike come from different tables or passages of the source.

The MIC90 is the lowest concentration that inhibits either 90% of growth or 90% of the strains tested, depending on the study. For the compound `C[C@@H](O)[C@H]1C(=O)N2C(C(=O)O)=C(SC3CN(C4=NCCS4)C3)[C@H](C)[C@H]12` [Tebipenem], the MIC90 in the assay on Staphylococcus aureus (read-out: MIC90) was 0.03 to 0.06 mg/L (≈ 0.0782 to 0.156 µM); with Enterococcus faecalis (read-out: MIC90), 0.25 to 0.5 mg/L (≈ 0.652 to 1.3 µM); in assay [1], 1.25 to 2.5 mg/L.
A word on the MBC: it is the smallest concentration meeting the test's criterion for killing. High values mean weaker bactericidal potency, low ones greater bactericidal potency. On to `CC(=O)NC[C@H]1CN(c2ccc3c(c2)Oc2ccccc2O3)C(=O)O1` [Compound T145], for which the “activity against growth (in words)” value in the assay on Mycobacterium abscessus is on record as “no activity”; with Pseudomonas aeruginosa, “no activity”; in the assay on Klebsiella pneumoniae, “no activity”; with Staphylococcus aureus, “potent activity”; with Mycobacterium avium, “no activity”; in the assay on Enterococcus faecalis, “potent activity”. For the same compound, the “activity against growth (in words)” value in the assay with Enterobacter cloacae is on record as “no activity”. In addition, the MIC90 with Mycobacterium abscessus was greater than 64 mg/L; in the assay with Pseudomonas aeruginosa it was greater than 64 mg/L; in assay [2], 0.25 to 0.50 mg/L; in assay [2] (Acinetobacter baumannii, 6M1B), 0.25 to 4 mg/L (≈ 0.735 to 11.8 µM); in [3] (Acinetobacter baumannii), 32 to 64 mg/L (≈ 94 to 188 µM); in assay [6], greater than 64 mg/L. Besides, the MIC90 was greater than 64 mg/L in assay [6] (Acinetobacter baumannii); greater than 64 mg/L in the assay with Klebsiella pneumoniae; 0.5 to 1 mg/L (≈ 1.47 to 2.94 µM) in [8] (Mycobacterium tuberculosis, H37RV); 0.5 to 1 mg/L (≈ 1.47 to 2.94 µM) in the assay on Staphylococcus aureus; greater than 64 mg/L with Mycobacterium avium; 0.25 to 0.5 mg/L (≈ 0.735 to 1.47 µM) with Enterococcus faecalis. In the assay with Enterobacter cloacae, this compound returned an MIC90 greater than 64 mg/L. For the same compound, the “selection of spontaneous resistant mutants” value in the assay with S. aureus [4] and in the assay with E. faecalis [11] was “failed to produce distinct colonies” in each case. The “drug-drug interaction (synergy, indifference, antagonism)” value in the assay with E. faecalis [5], with S. aureus [10] and with Mtb was “indifferent” throughout. For the same compound, the “bactericidal or bacteriostatic activity” value is recorded as “bacteriostatic” in the assay with E. faecalis [7]; “bacteriostatic” with S. aureus [9]; “bactericidal activity” with Mtb H37Rv (Mtb, 1, 2, 4 and 8 times MIC90). In the assay on Mtb H37Rv (Mycobacterium tuberculosis, Mtb H37Rv), this compound gave an MBC of 2 mg/L (≈ 5.88 µM).
Regarding `C[C@@H](O)[C@H]1C(=O)N2C(C(=O)O)=C([C@H]3CCCO3)S[C@H]12` [Faropenem], the MIC90 is 0.015 to 0.03 mg/L (≈ 0.0526 to 0.105 µM) in the assay with Staphylococcus aureus (read-out: MIC90), 0.25 to 0.5 mg/L (≈ 0.876 to 1.75 µM) with Enterococcus faecalis (read-out: MIC90) and 2.5 to 5.0 mg/L in assay [1].
Turning to `C[C@@H](O)[C@H]1C(=O)N2C(C(=O)[O-])=C(SC3Cn4cnc[n+]4C3)[C@H](C)[C@H]12` (some centres unmarked) [Biapenem], the MIC90 was 0.007 to 0.015 mg/L (≈ 0.02 to 0.0428 µM) in the assay with Staphylococcus aureus (read-out: MIC90), 0.25 to 0.5 mg/L (≈ 0.713 to 1.43 µM) in the assay on Enterococcus faecalis (read-out: MIC90) and 2.5 to 5.0 mg/L in [1].
Regarding `CC(=O)NC[C@H]1CN(c2ccc(N3CCOCC3)c(F)c2)C(=O)O1` [Linezolid, reference compound], the MIC90 in the assay on Pseudomonas aeruginosa (read-out: MIC90) was greater than 64 mg/L; in assay [2] (setting [13]) it was 0.25 to 0.50 mg/L; in assay [2] (Acinetobacter baumannii, 6M1B, Acinetobacter baumannii 6M-1b, environmental isolate, read-out: MIC90), 0.25 to 4 mg/L (≈ 0.741 to 11.9 µM); in [3] (setting [14]), greater than 64 mg/L; in [6] (setting [15]), greater than 64 mg/L; in [6] (setting [16]), greater than 64 mg/L. Besides, the MIC90 was 16 to 32 mg/L (≈ 47.4 to 94.9 µM) with Klebsiella pneumoniae (read-out: MIC90); 0.2 to 2 mg/L (≈ 0.593 to 5.93 µM) in assay [8] (setting [17]); 1 to 2 mg/L (≈ 2.96 to 5.93 µM) in the assay on Staphylococcus aureus (read-out: MIC90); 1 to 2 mg/L (≈ 2.96 to 5.93 µM) in the assay with Enterococcus faecalis (read-out: MIC90); greater than 64 mg/L with Enterobacter cloacae (read-out: MIC90). In addition, the “bactericidal or bacteriostatic activity” value in the assay with S. aureus [12] was “bacteriostatic activity”. Besides, the MIC90 of linezolid in assay [1] (Mtb, Rodriguez et al. 2002) was 0.5 to 2.0 mg/L.
With `C[C@@H](O)[C@H]1C(=O)N2C(C(=O)O)=C(S[C@@H]3CN[C@H](C(=O)N(C)C)C3)[C@H](C)[C@H]12` [Meropenem, reference compound], the MIC90 with Mycobacterium abscessus (setting [18]) was greater than 64 mg/L; with Pseudomonas aeruginosa (read-out: MIC90), 0.25 to 0.5 mg/L (≈ 0.652 to 1.3 µM); in assay [2] (setting [13]), 1 to 2 mg/L; in assay [3] (setting [14]), greater than 64 mg/L; in [6] (setting [15]), greater than 64 mg/L; in assay [6] (setting [16]), greater than 64 mg/L. The MIC90 in the assay with Klebsiella pneumoniae (read-out: MIC90) is less than 0.06 mg/L; in [8] (setting [17]), 4 to 8 mg/L (≈ 10.4 to 20.9 µM); in the assay with Staphylococcus aureus (read-out: MIC90), 0.06 to 0.13 mg/L (≈ 0.156 to 0.339 µM); with Mycobacterium avium (read-out: MIC90), greater than 64 mg/L; with Enterococcus faecalis (read-out: MIC90), 4 to 8 mg/L (≈ 10.4 to 20.9 µM); in the assay on Enterobacter cloacae (read-out: MIC90) it was 0.13 to 0.25 mg/L (≈ 0.339 to 0.652 µM).
In the case of `COc1cccc2c1Oc1ccc(N3C[C@H](CNC(C)=O)OC3=O)cc1O2` [Compound T197, (S)—N-((3-(6-methoxydibenzo[b,e][1,4]dioxin-2-yl)-2-oxooxazolidin-5-yl)methyl)acetamide], the MIC90 (in the assay with Mycobacterium abscessus (setting [18]); with Pseudomonas aeruginosa (read-out: MIC90); in assay [3] (setting [14]); in assay [6] (setting [15]); in [6] (setting [16]); with Klebsiella pneumoniae (read-out: MIC90)) was greater than 64 mg/L throughout. Also, the MIC90 was 8 to 16 mg/L (≈ 21.6 to 43.2 µM) in assay [8] (setting [17]); 16 to 32 mg/L (≈ 43.2 to 86.4 µM) in the assay with Staphylococcus aureus (read-out: MIC90); greater than 64 mg/L with Mycobacterium avium (read-out: MIC90); 8 to 16 mg/L (≈ 21.6 to 43.2 µM) in the assay with Enterococcus faecalis (read-out: MIC90); greater than 64 mg/L in the assay with Enterobacter cloacae (read-out: MIC90).
